# Experimental data: article PMC11784099 (Journal of Virology, 2024)
# Like-named read-outs stand apart in the source and are kept apart here.
# What was measured:
# [1] = in vitro; details: pig
# [2] = test system: Pseudorabies virus (Ra strain); experiment: microbe, parasite or virus in culture; format: cell-based
# [3] = test system: cGAS/STING signaling pathway; format: cell-based, pigs
# [4] = test system: PK-15 cells
# [5] = test system: type I interferon signaling pathway; set-up: species or system mice; details: mouse, in vivo
# [6] = test system: PRV; details: mouse, in vivo; cited from earlier work
# [7] = test system: p-IRF3; format: cell-based, pigs
# [8] = test system: IFN-β; set-up: species or system mice; details: mouse, in vivo
# [9] = test system: type I interferon signaling pathway; set-up: species or system mice; details: mouse, in vivo; remark: listed apart in the source
# [10] = test system: JAK/STAT signaling pathway; format: cell-based, pigs
# [11] = test system: JAK/STAT signaling pathway; format: cell-based, pigs; remark: listed apart in the source
# [12] = test system: IFN-β promoter; format: cell-based
# [13] = test system: cGAMP production; format: cell-based, pigs
# [14] = test system: cGAS/STING signaling pathway; format: cell-based
# [15] = test system: IRF3 phosphorylation (cGAS/STING signaling pathway); format: cell-based, pigs
# [16] = test system: PRV; set-up: species or system mice; details: mouse, in vivo
# [17] = Suid alphaherpesvirus 1, PK-15, 1 h
molecule,measurement,setting,value
COc1ccc(-c2coc3cc(O)ccc3c2=O)cc1 [Formononetin],CC50,[1],228 µM
O=c1c(O)c(-c2ccc(O)c(O)c2)oc2cc(O)ccc12 [Fisetin],CC50,[1],717 µM
same,IC50,[2],–^b
Oc1ccc(/C=C/c2cc(O)cc(O)c2)cc1 [resveratrol],IC50,[2]; [17],23.2 to 323 µM
COc1cc(C2Oc3cc([C@H]4Oc5cc(O)cc(O)c5C(=O)[C@@H]4O)ccc3OC2CO)ccc1O (some centres unmarked) [Silibinin],CC50,[1],392 µM
same,IC50,[2]; [17],203 µM
C[C@@H]1O[C@@H](OC[C@H]2O[C@@H](Oc3c(-c4ccc(O)c(O)c4)oc4cc(O)cc(O)c4c3=O)[C@H](O)[C@@H](O)[C@@H]2O)[C@H](O)[C@H](O)[C@H]1O [Rutin],CC50,[1],> 389 µM
O=c1cc(-c2ccccc2)oc2cc(O)cc(O)c12 [Chrysin],CC50,[1],107 µM
CC1(C)[C@@H](O[C@H]2O[C@H](C(=O)O)[C@@H](O)[C@H](O)[C@H]2O[C@@H]2O[C@H](C(=O)O)[C@@H](O)[C@H](O)[C@H]2O)CC[C@]2(C)[C@H]3C(=O)C=C4[C@@H]5C[C@@](C)(C(=O)O)CC[C@]5(C)CC[C@@]4(C)[C@]3(C)CC[C@@H]12 [glycyrrhizic acid],IC50,[2]; [17],23.2 to 323 µM
O=C1C[C@@H](c2ccc(O)cc2)Oc2cc(O)cc(O)c21 [Naringenin],mRNA expression level of cGAS,[3],significantly enhance
same,mRNA level of IRF3,[3],no discernible differences
same,mRNA levels of IFN-β,[3],significantly elevate
O=C1c2c(O)cc(O)cc2O[C@H](c2cc(O)c(O)c(O)c2)[C@H]1O [Dihydromyricetin],CC50,[1],914 µM
same,IC50,[2]; [17],161 µM
COc1ccc([C@@H]2CC(=O)c3c(O)cc(O[C@@H]4O[C@H](CO)[C@@H](O)[C@H](O)[C@H]4O[C@@H]4O[C@@H](C)[C@H](O)[C@@H](O)[C@H]4O)cc3O2)cc1O [Neohesperidin],CC50,[4],> 1000 µM
O=C1C[C@@H](c2ccc(O)cc2)Oc2cc(O)ccc21 [Liquiritigenin],CC50,[4],790 µM
same,IC50,[2]; read-out: IC50,323 µM
COc1ccc(-c2coc3cc(O)cc(O)c3c2=O)cc1 [Biochanin A],CC50,[4],382 µM
COc1cc2c(cc1OC)-c1cc3ccc(OC)c(OC)c3c[n+]1CC2 [Palmatine],CC50,[4],1250 µM
COc1ccc([C@@H]2CC(=O)c3c(O)cc(O[C@@H]4O[C@H](CO[C@@H]5O[C@@H](C)[C@H](O)[C@@H](O)[C@H]5O)[C@@H](O)[C@H](O)[C@H]4O)cc3O2)cc1O [Hesperidin],CC50,[4],> 238 µM
OC[C@H]1O[C@@H](Oc2cc(O)cc(/C=C/c3ccc(O)cc3)c2)[C@H](O)[C@@H](O)[C@@H]1O [Polydatin],CC50,[1],> 466 µM
O=c1cc(-c2ccccc2)oc2cc(O)c(O)c(O)c12 [Baicalein],CC50,[4],563 µM
same,IC50,[2]; read-out: IC50,291 µM
same,mRNA expression level of cGAS,[3],significantly enhance
same,mRNA level of IRF3,[3],no discernible differences
same,mRNA level of STING,[3],significantly increase
same,mRNA levels of IFN-β,[3],significantly elevate
O=c1c(O)c(-c2cc(O)c(O)c(O)c2)oc2cc(O)cc(O)c12 [Myricetin],CC50,[1],> 1000 µM
same,"expression levels of antiviral effectors MX1, OAS1 and ISG15 in brain and kidney",[5],higher expression levels
same,IC50,[2]; [17],42.7 µM
same,mortality rate at 4 dpi,[6],0%
same,mortality rate at 5 dpi,[6],30%
same,reduction in viral copies in the kidney,[6],up to 80 fold
same,total amount of IRF3 phosphorylation (fluorescence intensity),[7],significant enhancement
same,production of IFN-β in tissues (ELISA),[8],significantly promote
same,mRNA expression level of cGAS,[3],significantly enhance
same,mRNA level of IRF3,[3],significantly increase
same,mRNA level of STING,[3],significantly increase
same,mRNA levels of IFN-β,[3],significantly elevate
same,"mRNA levels of cGAS, STING, TBK1, IRF3, IRF7 and IFN-β",[3],all increased
same,"transcriptional levels of cGAS, STING, TBK1, IRF3, IRF7, IFN-β, ISG56 and ISG54 in heart, liver, spleen, lung and kidney",[9],significantly higher
same,effect proteins ISG15 and OAS1,[10],significantly increased
same,"protein levels of STAT1, p-STAT1 and p-STAT1/STAT1",[10],significantly higher
same,"transcriptional levels of JAK1, STAT1, IRF9, ISG15, ISG56 and ISG54",[11],notable elevation
same,"expression level of the IFN-β promoter, ratio to infected control group",[12],~2 fold
same,increase in cGAMP production compared with the blank group,[13],~1.5 fold
same,"protein expressions of cGAS, STING, TBK1, IRF3 and p-IRF3",[14],significantly increase
same,levels of p-IRF3 and p-IRF3/IRF3,[15],significantly elevated
same,mortality rate at 4 dpi,[16],70%
COc1ccc(-c2oc3c(CC=C(C)C)c(O[C@@H]4O[C@H](CO)[C@@H](O)[C@H](O)[C@H]4O)cc(O)c3c(=O)c2O[C@@H]2O[C@@H](C)[C@H](O)[C@@H](O)[C@H]2O)cc1 [Icariin],CC50,[1],> 382 µM
O=c1cc(-c2ccc(O)c(O)c2)oc2cc(O)cc(O)c12 [Lutelin],CC50,[1],195 µM
same,IC50,[2]; [17],36.9 µM
same,mRNA expression level of cGAS,[3],significantly enhance
same,mRNA level of IRF3,[3],no discernible differences
same,mRNA level of STING,[3],significantly increase
Pueraria,CC50,[4],> 461 µM
O=c1c(O)c(-c2ccc(O)c(O)c2)oc2cc(O)cc(O)c12 [Quercetin],CC50,[4]; pig,890 µM
same,CC50,[1],449 µM
O=C(O)[C@H]1O[C@@H](Oc2cc3oc(-c4ccc(O)cc4)cc(=O)c3c(O)c2O)[C@H](O)[C@@H](O)[C@@H]1O [Scutellarin],CC50,[1],> 213 µM
O=c1c2cc(O)c(O)cc2oc2cc(O)c([C@@H]3O[C@H](CO)[C@@H](O)[C@H](O)[C@H]3O)c(O)c12 [Mangiferin],CC50,[1],> 1050 µM
O=c1c(O)c(-c2ccc(O)cc2)oc2cc(O)cc(O)c12 [Kaempferol],CC50,[1],255 µM
same,IC50,[2]; [17],25.6 µM
